Data from the supplement of paper PMC11061612.

What was measured:
Assay in all cases: Bliss excess, mean over the matrix (fraction); higher = more synergy
[1] = tested on: MKN45 (Gastric Carcinoma)
How it was run: (§1)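 Bliss excess equals the observed combination effect minus the expected value EA + EB − EA·EB, where EA and EB are the effects of each agent alone. Combination Emax is the second-highest inhibition within the matrix. Inhibition was scaled from CellTiter-Glo 2.0 luminescence, with 0 set by vehicle wells and 1 by blank wells, after 72 hours of two-drug dosing of cells plated in 1536-well plates.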

[2] = tested on: GP5d (Colorectal Carcinoma)
How it was run: as §1

[3] = tested on: A2058 (Melanoma)
How it was run: as §1

[4] = tested on: SHP-77 (Small Cell Lung Carcinoma)
How it was run: as §1

[5] = tested on: IST-MES1 (Mesothelioma)
How it was run: as §1

[6] = tested on: LK-2 (Squamous Cell Lung Carcinoma)
How it was run: as §1

[7] = tested on: PSN1 (Pancreatic Carcinoma)
How it was run: as §1

[8] = tested on: HCT-15 (Colorectal Carcinoma)
How it was run: as §1

[9] = tested on: SF539 (Glioblastoma)
How it was run: as §1

[10] = tested on: VAL (B-Cell Non-Hodgkin's Lymphoma)
How it was run: as §1

[11] = tested on: 23132-87 (Gastric Carcinoma)
How it was run: as §1

[12] = tested on: NCI-H446 (Small Cell Lung Carcinoma)
How it was run: as §1

[13] = tested on: OVMIU (Ovarian Carcinoma)
How it was run: as §1

[14] = tested on: LXF-289 (Lung Adenocarcinoma)
How it was run: as §1

[15] = tested on: NCI-H23 (Lung Adenocarcinoma)
How it was run: as §1

[16] = tested on: WM278 (Melanoma)
How it was run: as §1

[17] = tested on: MFE-280 (Endometrial Carcinoma)
How it was run: as §1

[18] = tested on: L-1236 (Hodgkin's Lymphoma)
How it was run: as §1

[19] = tested on: RKN (Other Solid Carcinomas)
How it was run: as §1

[20] = tested on: GB-1 (Glioblastoma)
How it was run: as §1

## C=CCn1c(=O)c2cnc(Nc3ccc(N4CCN(C)CC4)cc3)nc2n1-c1cccc(C(C)(C)O)n1 [AZD1775] + C[C@@H]1COCCN1C2=NC(=NC(=C2)C3(CC3)[S@](=N)(=O)C)C4=C5C=CNC5=NC=C4 [AZD6738] (first compound max 1 µM, partner max 10 µM)
[1]
  Bliss excess: -0.0711
[2]
  Bliss excess: 0.0418
[3]
  Bliss excess: 0.0553
[4]
  Bliss excess: 0.0598
[5]
  Bliss excess: -0.025
[6]
  Bliss excess: -0.0086
[7]
  Bliss excess: -0.0188
[8]
  Bliss excess: 0.0483
[9]
  Bliss excess: 0.0027
[10]
  Bliss excess: 0.0239
[11]
  Bliss excess: 0.083
[12]
  Bliss excess: 0.0581
[13]
  Bliss excess: -0.0635
[14]
  Bliss excess: 0.0266
[15]
  Bliss excess: 0.0238
[16]
  Bliss excess: -0.0058
[17]
  Bliss excess: 0.0536
[18]
  Bliss excess: -0.032
[19]
  Bliss excess: -0.0029

## CN(CCO)CC[C@H](CSc1ccccc1)Nc1ccc(S(=O)(=O)NC(=O)c2ccc(N3CCC([C@@H](O)c4ccccc4-c4ccc(Cl)cc4)CC3)cc2)cc1S(=O)(=O)C(F)(F)F [AZD4320] + Cn1cnc2c(F)c(Nc3ccc(Br)cc3Cl)c(C(=O)NOCCO)cc21 [Selumetinib] (first compound max 1 µM, 7x7, partner max 3 µM)
[1]
  Bliss excess: -0.0725
[2]
  Bliss excess: 0.0908
[4]
  Bliss excess: 0.0429
[5]
  Bliss excess: 0.0318
[20]
  Bliss excess: 0.0313
[6]
  Bliss excess: -0.0134
[7]
  Bliss excess: 0.0043
[8]
  Bliss excess: 0.0267
[9]
  Bliss excess: 0.0176
[10]
  Bliss excess: 0.0113
[11]
  Bliss excess: 0.0543
[12]
  Bliss excess: -0.0039
[13]
  Bliss excess: -0.0595
[14]
  Bliss excess: -0.0301
[15]
  Bliss excess: 0.0703
[16]
  Bliss excess: 0.0582
[17]
  Bliss excess: -0.0211
[18]
  Bliss excess: 0.0288
[19]
  Bliss excess: 0.0307

## COc1nnc2ccc(N3CCC(c4ccc(OCCN5CCN(C)C(=O)[C@H]5C)cc4)CC3)nn12 [AZD5153] + CN(CC[C@H](CSC1=CC=CC=C1)NC2=C(C=C(C=C2)S(=O)(=O)NC(=O)C3=CC=C(C=C3)N4CCC(CC4)[C@H](C5=CC=CC=C5C6=CC=C(C=C6)Cl)O)S(=O)(=O)C(F)(F)F)CCO [AZD4320] (first compound max 1 µM, 7x7, partner max 1 µM)
[2]
  Bliss excess: 0.0199
[3]
  Bliss excess: -0.0062
[20]
  Bliss excess: 0.0003
[8]
  Bliss excess: -0.0035
[11]
  Bliss excess: -0.0551
[12]
  Bliss excess: 0.107
[14]
  Bliss excess: 0.0194
[15]
  Bliss excess: -0.0027
[16]
  Bliss excess: 0.0168

## Cc1c2c(nn1C)CSCc1cc(n(C)n1)CSc1cc(c3ccccc3c1)OCCCc1c(C(=O)O)n(C)c3c-2c(Cl)ccc13 [AZD5991] + CCN(CCO)CCCOc1ccc2c(Nc3cc(CC(=O)Nc4cccc(F)c4)[nH]n3)ncnc2c1 [AZD2811] (first compound max 1 µM, 7x7, partner max 1 µM)
[1]
  Bliss excess: -0.0123
[2]
  Bliss excess: -0.0319
[3]
  Bliss excess: 0.114
[4]
  Bliss excess: -0.034
[5]
  Bliss excess: -0.002
[20]
  Bliss excess: -0.0318
[6]
  Bliss excess: -0.0115
[7]
  Bliss excess: -0.0467
[8]
  Bliss excess: 0.0432
[9]
  Bliss excess: 0.0184
[10]
  Bliss excess: -0.0541
[11]
  Bliss excess: -0.0075
[13]
  Bliss excess: -0.099
[14]
  Bliss excess: 0.0912
[15]
  Bliss excess: 0.0222
[16]
  Bliss excess: 0.0657
[17]
  Bliss excess: 0.053
[18]
  Bliss excess: 0.0255
[19]
  Bliss excess: -0.0015

## CS(=O)(=O)CCNCc1ccc(-c2ccc3ncnc(Nc4ccc(OCc5cccc(F)c5)c(Cl)c4)c3c2)o1 [Lapatinib] + NC1(c2ccc(-c3nc4ccn5c(=O)[nH]nc5c4cc3-c3ccccc3)cc2)CCC1 [MK-2206] (first compound max 10 µM, 7x7, partner max 10 µM)
[1]
  Bliss excess: -0.0466
[3]
  Bliss excess: -0.049
[4]
  Bliss excess: -0.0136
[5]
  Bliss excess: 0.0433
[6]
  Bliss excess: 0.0303
[7]
  Bliss excess: 0.0205
[9]
  Bliss excess: -0.0077
[10]
  Bliss excess: -0.0147
[12]
  Bliss excess: -0.0173
[13]
  Bliss excess: 0.0659
[15]
  Bliss excess: -0.0481
[17]
  Bliss excess: -0.006
[18]
  Bliss excess: 0.0138
[19]
  Bliss excess: -0.0169

## CCc1c2c(nc3ccc(O)cc13)-c1cc3c(c(=O)n1C2)COC(=O)[C@]3(O)CC [SN-38] + O=C(c1cc(Cc2n[nH]c(=O)c3ccccc23)ccc1F)N1CCN(C(=O)C2CC2)CC1 [Olaparib] (first compound max 0.3 µM, 7x7, partner max 10 µM)
[1]
  Bliss excess: -0.0495
[2]
  Bliss excess: 0.143
[3]
  Bliss excess: 0.038
[4]
  Bliss excess: 0.0235
[5]
  Bliss excess: -0.0582
[20]
  Bliss excess: 0.0539
[6]
  Bliss excess: 0.128
[7]
  Bliss excess: 0.0329
[8]
  Bliss excess: 0.0754
[9]
  Bliss excess: 0.0549
[10]
  Bliss excess: 0.036
[11]
  Bliss excess: 0.0174
[12]
  Bliss excess: 0.0477
[13]
  Bliss excess: 0.0409
[16]
  Bliss excess: 0.0486
[17]
  Bliss excess: 0.0167
[18]
  Bliss excess: 0.0111
[19]
  Bliss excess: 0.0145

## C[C@@H](c1ccc2nccn2c1)n1nnc2ncc(-c3cnn(C)c3)nc21 [Savolitinib] + CN(CC[C@H](CSC1=CC=CC=C1)NC2=C(C=C(C=C2)S(=O)(=O)NC(=O)C3=CC=C(C=C3)N4CCC(CC4)[C@H](C5=CC=CC=C5C6=CC=C(C=C6)Cl)O)S(=O)(=O)C(F)(F)F)CCO [AZD4320] (first compound max 1 µM, 7x7, partner max 1 µM)
[2]
  Bliss excess: -0.0339
[3]
  Bliss excess: 0.0035
[20]
  Bliss excess: -0.0653
[8]
  Bliss excess: -0.0274
[11]
  Bliss excess: -0.0618
[12]
  Bliss excess: 0.112
[14]
  Bliss excess: -0.0203
[15]
  Bliss excess: 0.0248
[16]
  Bliss excess: -0.0406
